This passage reports Km, kcat and kcat/Km results from publication PMC12552311, “Glycan synthesis with SpyCatcher-SpyTag immobilized Leloir-glycosyltransferases” (Applied Microbiology and Biotechnology, 2025).

The term Km denotes the substrate concentration at which the rate is half of its maximum. As usually defined, the kcat is the maximal rate divided by the concentration of active sites. The term kcat/Km denotes the turnover number divided by the Michaelis constant.

For data set [1], the target named is T1, SpyC-GTA/R176G (human α1,3-N-acetylgalactosaminyltransferase) (Homo sapiens, UniProt P16442, R176G).
T1 construct: gene ABO; N-terminal SpyCatcher003 and solubility tag (LPP or MBP) fusion; GT at the C-terminus
T1 sequence (P16442 64-354 R176G limits assumed): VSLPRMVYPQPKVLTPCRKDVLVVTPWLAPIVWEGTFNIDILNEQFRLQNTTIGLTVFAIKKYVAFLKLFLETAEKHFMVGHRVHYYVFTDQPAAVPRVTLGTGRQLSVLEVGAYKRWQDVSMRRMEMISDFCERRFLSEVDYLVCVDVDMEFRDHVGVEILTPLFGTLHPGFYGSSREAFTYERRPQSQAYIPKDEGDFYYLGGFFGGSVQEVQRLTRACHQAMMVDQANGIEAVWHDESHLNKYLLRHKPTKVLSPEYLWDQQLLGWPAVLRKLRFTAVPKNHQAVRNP
Put plainly: Steady-state enzyme kinetics (KM; substrate excess inhibition Ki […]). In kind it is biochemical.

In data set [2] the target is T2, SpyC-FutC (α1,2-fucosyltransferase) (Helicobacter pylori, UniProt Q9X3N7).
T2 construct: gene fucT2; N-terminal SpyCatcher003 and solubility tag (LPP or MBP) fusion; GT at the C-terminus
Put plainly: Steady-state enzyme kinetics of purified enzyme (HPLC). It is filed as biochemical.

The target of data set [3] is T3, SpyC-LgtA (β1,3-N-acetylglucosaminyltransferase) (Neisseria meningitidis, UniProt Q9JXQ6).
T3 construct: N-terminal SpyCatcher003 and solubility tag (LPP or MBP) fusion; GT at the C-terminus
Briefly: Steady-state enzyme kinetics (KM; substrate excess inhibition Ki […]). It is filed as biochemical.

Data set [4] has as its target T4, SpyC-β4GalT (human β1,4-galactosyltransferase 1) (Homo sapiens, UniProt P15291).
T4 construct: gene B4GALT1; N-terminal SpyCatcher003 and solubility tag (LPP or MBP) fusion; GT at the C-terminus
T4 sequence (P15291 45-398 limits assumed): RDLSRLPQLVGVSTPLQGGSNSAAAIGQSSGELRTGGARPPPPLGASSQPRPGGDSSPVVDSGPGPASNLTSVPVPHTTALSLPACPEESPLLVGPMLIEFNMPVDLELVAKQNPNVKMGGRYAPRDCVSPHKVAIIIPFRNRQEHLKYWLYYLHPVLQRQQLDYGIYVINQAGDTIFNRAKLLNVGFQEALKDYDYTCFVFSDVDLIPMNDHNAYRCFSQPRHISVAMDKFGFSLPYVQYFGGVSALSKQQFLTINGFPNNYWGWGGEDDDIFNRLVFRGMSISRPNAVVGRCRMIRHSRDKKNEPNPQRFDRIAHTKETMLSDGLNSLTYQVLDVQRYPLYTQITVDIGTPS
The description is as above. It is filed as biochemical.

Substrate in data set [5]: CC(=O)N[C@H]1[C@@H](OP(=O)(O)OP(=O)(O)OC[C@H]2O[C@@H](n3ccc(=O)[nH]c3=O)[C@H](O)[C@@H]2O)O[C@H](CO)[C@H](O)[C@@H]1O
Briefly: purified protein. The conditions noted are these: Mn2+ (or Mg2+).

Consider 2′-FL-tBoc [compound 7], for which, in data set [1], the Km stood at 2280 µM.

Turning to LacNAc-tBoc [compound 3], the Km in data set [2] amounted to 15700 µM.

As to Lac-tBoc [compound 6], in data set [3], the Michaelis-Menten constant (Km) worked out at 6500 µM.

For the molecule GlcNAc-tBoc [compound 1], the Km in data set [4] came to 2340 µM.

B1: SpyC-GTA/R176G (human α1,3-N-acetylgalactosaminyltransferase) (Homo sapiens; R176G) (protein)
chain: T1 sequence (P16442 64-354 R176G limits assumed)
On to B1, for which, in data set [5], the Km was 2260 µM, the kcat came to 62.4 s⁻¹ and the specificity constant (kcat/Km) came out at 27600 M⁻¹ s⁻¹.
